What follows are compounds tested on HepG2 (assay: Hepatoprotective activity in human HepG2 cells assessed as inhibition of APAP-induced cell damage at 10 uM by MTT assay relative to control).
Format: functional

| Structure (SMILES) | inhibition at 10 µM |
| --- | --- |
| C[C@@]12C[C@H](C3=CC(=O)O[C@@H]3O)OC(=O)C1=CC[C@]1(C)[C@H]2C[C@H]2COC(=O)[C@]21O | 4.9% |
| COC(=O)[C@H]1O[C@H]2C[C@]1(C)C(CCCO[C@@H]1O[C@H](CO)[C@@H](O)[C@H](O)[C@H]1O)[C@]1(C)C[C@@H](c3ccoc3)OC(=O)[C@H]21 (stereo partly specified) | -24.9% |
| C[C@@H](O)/C=C/C1[C@]2(C)CO[C@@]1(C)C[C@@H](O)C2 (stereo partly specified) | 19.2% |
| C[C@@]12C[C@@H](c3ccoc3)OC(=O)C1=CC[C@]1(C)[C@H]2C[C@H]2COC(=O)[C@]21OC1O[C@H](CO)[C@@H](O)[C@H](O)[C@H]1O (stereo partly specified) | 3.8% |
| C[C@@]12C[C@@H](c3ccoc3)OC(=O)C1=CC[C@]1(C)[C@H]2C[C@H]2COC(=O)[C@]21O | 6.4% |
| C[C@@]12C[C@H](c3ccoc3)OC(=O)C1=CC[C@]1(C)[C@H]2C[C@H]2COC(=O)[C@]21O | 6.6% |
| COc1cc([C@@H]2OC[C@@H]3C(=O)OC[C@@H]32)cc(OC)c1O | 17% |
| COC(=O)c1cc(OC)c2c(c1-c1c(CO)cc(OC)c3c1OCO3)OCO2 [BICYCLOL] | 15.7% |
| COc1cc(C[C@H]2CO[C@H](c3ccc(O)c(OC)c3)[C@H]2CO)ccc1O [LARICIRESINOL] | -4.3% |
| O=C(/C=C/c1ccc(O)cc1)NCCc1ccc(O)cc1 [N-P-COUMAROYL TYRAMINE] | 39% |
| COc1cc(/C=C/C(=O)NCCc2ccc(O)cc2)ccc1O [N-TRANS-FERULOYL TYRAMINE] | 3.5% |
